According to patent US20030199431A1, “Modified peptide nucleic acid (PNA) molecules” (priority 1999, published 2003):
≈ marks a conversion by molar mass, not a printed value. Like-named read-outs stand apart in the source and are kept apart here.

Assays:
[1] = system: Enterococcus faecium strain 8803; details: E. facium strain 8803
[2] = system: Enterococcus faecium ATCC 51550; details: E. facium strain ATCC 51550
[3] = system: Enterococcus faecium ATCC 700221; details: E. facium strain ATCC 700221
S. aureus strain 700698 [4] = system: S. aureus strain 700698; design: MIC: unit not given beside the values; details: S. aureus strain ATCC 700698
S. aureus strain 700698R [5] = details: S. aureus strain ATCC 700698R; additional 24 hours at 35° C.
[6] = system: Staphylococcus aureus NCTC 8325; design: MIC: unit not given beside the values; details: S. aureus strain 8325
S. aureus strain 700698R [7] = details: S. aureus strain ATCC 700698R; characteristics of the strain; cited from earlier work
[8] = system: Staphylococcus aureus NCTC 8325; details: S. aureus strain 8325; characteristics of the strain; cited from earlier work
S. aureus strain 700698 [9] = details: S. aureus strain ATCC 700698; characteristics of the strain; cited from earlier work
E. coli K12 = type: cell-based, Escherichia coli
[10] = system: Escherichia coli K12 MG1655; type: cell-based; details: cultures with 10^4-10^1 cells/ml; 37° C., 16 hours
From the text: (§1) The bacterial growth assay is designed to identify modified PNA molecules that inhibit or completely abolish bacterial growth. Growth inhibition results from antisense binding of PNA to mRNA of the targeted gene. The compound tested is present during the entire assay.
(§2) The experimental bacterial strain used is Escherichia coli K12 MG1655 (E. coli Genentic Stock Center, Yale University, New Haven). The medium for growth is 10% sterile LB (Lurea Bertani) medium. E. coli test cells are pre-cultured in LB medium at 37° C. over night (over night culture). The screen is performed in 96-well microtiter plates at 37° C. with constant shaking. PNAs are dissolved in H2O as a 40×concentrated stock solution.
(§3) A fresh culture (test culture) is inoculated with an overnight culture and grown to mid-log-phase (OD600=0.1 corresponding to 10^7 cells/ml) at 37° C. The test culture is diluted stepwise in the range 10^5 to 10^1 with 10% LB medium. 195 μl of diluted culture and 5 μl of a 40×concentrated PNA stock solution are added to each test well. 96-well microtiter plates are incubated in a microplate scanning spectrophotometer at 37° C. under constant shaking. OD600 measurements are performed automatically every 3.19 minutes and recorded simultaneously.
The assay was performed as follows. […] PNA design no. 2

[11] = system: Escherichia coli K12 MG1655; type: cell-based; details: cultures with 10^4-10^1 cells/ml; 37° C., 16 hours; remark: listed apart in the source
From the text: as §1, §2, §3
The assay was performed as follows.

## CC[C@H](C)[C@H](NC(=O)[C@H](CCCCN)NC(=O)[C@H](CCCCN)NC(=O)[C@H](CC(C)C)NC(=O)[C@@H](NC(=O)[C@@H](NC(=O)[C@H](C)NC(=O)[C@@H](NC(=O)[C@H](CCCCN)NC(=O)[C@H](CCCCN)NC(=O)[C@@H](NC(=O)[C@H](CC(C)C)NC(=O)[C@@H](NC(=O)[C@@H](NC(=O)CNC(=O)[C@H](CC(C)C)NC(=O)[C@@H]1CCCN1C(=O)[C@H](C)NC(=O)[C@H](CC(C)C)NC(=O)[C@@H](NC(=O)[C@@H](N)CO)[C@@H](C)CC)[C@@H](C)O)[C@@H](C)O)C(C)C)C(C)C)[C@@H](C)O)[C@@H](C)O)C(=O)N[C@@H](Cc1ccccc1)C(=O)N[C@@H](CO)C(=O)N[C@@H](CCCCN)C(=O)N[C@@H](Cc1c[nH]c2ccccc12)C(=O)N[C@@H](CCCCN)C(=O)N[C@@H](CSC1CC(=O)N(CC2CCC(C(=O)NCCOCCOCC(=O)NCCN(CC(=O)NCCN(CC(=O)NCCN(CC(=O)NCCN(CC(=O)NCCN(CC(=O)NCCN(CC(=O)NCCN(CC(=O)NCCN(CC(=O)NCCN(CC(=O)NCCN(CC(=O)NCCN(CC(=O)NCCN(CC(N)=O)C(=O)Cn3cnc4c(N)ncnc43)C(=O)Cn3cc(C)c(=O)[nH]c3=O)C(=O)Cn3cc(C)c(=O)[nH]c3=O)C(=O)Cn3cc(C)c(=O)[nH]c3=O)C(=O)Cn3cnc4c(N)ncnc43)C(=O)Cn3ccc(N)nc3=O)C(=O)Cn3cnc4c(N)ncnc43)C(=O)Cn3cnc4c(N)ncnc43)C(=O)Cn3cc(C)c(=O)[nH]c3=O)C(=O)Cn3ccc(N)nc3=O)C(=O)Cn3cc(C)c(=O)[nH]c3=O)C(=O)Cn3cc(C)c(=O)[nH]c3=O)CC2)C1=O)C(=O)O (stereo partly drawn) [Example 22]
[1]
  MIC: <0.4 µM
[1]; additional 24 hours at 35° C.
  MBC: <0.4 µM
[2]
  MIC: <0.4 µM
[2]; additional 24 hours at 35° C.
  MBC: <0.4 µM
[3]
  MIC: <0.4 µM
[3]; additional 24 hours at 35° C.
  MBC: <0.4 µM

## Cc1cn(CC(=O)N(CCNC(=O)CN(CCNC(=O)CN(CCNC(=O)CN(CCNC(=O)CN(CCNC(=O)CN(CCNC(=O)CN(CCNC(=O)COCCOCCNC(=O)C2CCC(CN3C(=O)CC(SC[C@H](NC(=O)[C@H](CCCCN)NC(=O)[C@H](CCCCN)NC(=O)[C@@H](NC(=O)[C@@H](NC(=O)[C@H](Cc4ccccc4)NC(=O)[C@H](CCCCN)NC(=O)[C@@H](NC(=O)[C@H](CCCCN)NC(=O)[C@H](Cc4ccccc4)NC(=O)[C@H](CCCCN)NC(=O)[C@@H](N)CCCCN)C(C)C)C(C)C)C(C)C)C(=O)O)C3=O)CC2)C(=O)Cn2cnc3c(N)ncnc32)C(=O)Cn2ccc(N)nc2=O)C(=O)Cn2cc(C)c(=O)[nH]c2=O)C(=O)Cn2cc(C)c(=O)[nH]c2=O)C(=O)Cn2cc(C)c(=O)[nH]c2=O)C(=O)Cn2cnc3c(=O)[nH]c(N)nc32)CC(=O)NCCN(CC(=O)NCCN(CC(=O)NCCN(CC(=O)NCCN(CC(=O)NCCN(CC(N)=O)C(=O)Cn2ccc(N)nc2=O)C(=O)Cn2ccc(N)nc2=O)C(=O)Cn2ccc(N)nc2=O)C(=O)Cn2cnc3c(=O)[nH]c(N)nc32)C(=O)Cn2ccc(N)nc2=O)c(=O)[nH]c1=O (stereo partly drawn) [Example 24, H2N-KKFKVKFVVKKC-smcc-Ado-ACTTTGTCGCCC-NH2]
S. aureus strain 700698 [4]
  MIC: 800/1600
S. aureus strain 700698 [4]; additional 24 hours at 35° C.
  MBC: 1.6 µM (≈ 8.07 µg/mL)
S. aureus strain 700698R [5]
  MBC: ≧1600 nM
[6]
  MIC: 800/1600
[6]; additional 24 hours at 35° C.
  MBC: 1.6 µM (≈ 8.07 µg/mL)

## CN[C@H](CC(C)C)C(=O)N[C@H]1C(=O)N[C@@H](CC(N)=O)C(=O)N[C@H]2C(=O)N[C@H]3C(=O)N[C@H](C(=O)N[C@H](C(=O)O)c4cc(O)cc(O)c4-c4cc3ccc4O)[C@H](O)c3ccc(c(Cl)c3)Oc3cc2cc(c3O[C@@H]2O[C@H](CO)[C@@H](O)[C@H](O)[C@H]2O[C@H]2C[C@](C)(N)[C@H](O)[C@H](C)O2)Oc2ccc(cc2Cl)[C@H]1O [Vancomycin]
S. aureus strain 700698R [7]
  Vancomycin MIC: 11 µg/mL
[8]
  Vancomycin MIC: <0.5 µg/mL
S. aureus strain 700698 [9]
  Vancomycin MIC: 2 µg/mL

## H-KFFKFFKFF-ado-JTJTJJT-ado-ado-ado-TCCCTCTC-Lys-NH2 [Example 5]
E. coli K12
  Bacterial growth inhibition: − (key: +: Total inhibition of bacterial growth.; (+): Significantly extended lagphase, (more than five times); −: Lagphase extended less than five times;)

## H-KFFKFFKFFK-ado-CACTGGAAATTT-Lys-NH2 [PNA 26]
[10]
  PNA concentration giving total inhibition of growth: at least 2.5 μM

## H-KFFKFFKFFK-ado-TTTCATCCGCTG-Lys-NH2 [PNA 14]
[11]
  PNA concentration giving total inhibition of growth: at least 1.4 μM

## H-LLKKLAKALKG-ahex-ado-CCA TCT AAT CCT-NH2 [PNA 228]
E. coli K12
  Bacterial growth inhibition: − (key: +: Total inhibition of bacterial growth.; (+): Significantly extended lagphase, (more than five times); −: Lagphase extended less than five times;)
